pEC50, pKi: −log10 of the molar value. Read-outs that look alike come from different tables or passages of the source.
How the values were obtained:
5HT2A receptor [1] = molecular target: T1, 5HT2A receptor (Homo sapiens, UniProt P28223); assay: cell-based; set-up: expressed in transfected cells; host or cells: HEK293T cells, transient co-transfection; settings: BRET1 beta-arrestin2 recruitment, HEK293T cells; for pEC50: read-out: 5HT2A β-Arr EC50; for Emax: HEK-293T, normalized to 5-HT, read-out: 5HT2A β-Arr Emax (%); for EC50: 5HT2A β-Arr EC50 (nM)
T1 sequence (P28223 whole entry): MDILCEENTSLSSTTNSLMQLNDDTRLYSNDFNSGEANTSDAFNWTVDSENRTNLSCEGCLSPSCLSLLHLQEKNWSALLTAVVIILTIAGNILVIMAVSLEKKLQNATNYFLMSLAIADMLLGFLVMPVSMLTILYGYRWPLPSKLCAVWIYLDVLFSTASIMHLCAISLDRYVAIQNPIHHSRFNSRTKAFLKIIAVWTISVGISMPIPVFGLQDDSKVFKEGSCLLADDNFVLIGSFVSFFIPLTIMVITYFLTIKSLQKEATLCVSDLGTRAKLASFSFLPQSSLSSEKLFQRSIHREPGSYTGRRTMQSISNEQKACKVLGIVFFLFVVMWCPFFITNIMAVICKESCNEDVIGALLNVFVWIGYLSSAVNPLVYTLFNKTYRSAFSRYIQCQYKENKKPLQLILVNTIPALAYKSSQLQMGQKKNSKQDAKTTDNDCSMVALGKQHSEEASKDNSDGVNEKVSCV

5HT2A receptor [2] = molecular target: T1, 5HT2A receptor; assay: biochemical; assay type: binding; set-up: expressed in transfected cells; crude membranes; settings: secondary radioligand binding, Ki from IC50 by Cheng-Prusoff; for pKi: read-out: 5HT2A Ki; for Ki: 5HT2A Ki (nM)
5HT2A receptor [3] = molecular target: T1, 5HT2A receptor; assay: cell-based; set-up: expressed in transfected cells; host or cells: HEK293T cells, transient co-transfection; settings: BRET2 Gαq dissociation, HEK293T cells; for pEC50: read-out: 5HT2A Gq EC50; for Emax: HEK-293T, normalized to 5-HT, read-out: 5HT2A Gq Emax (%)

Structure (SMILES)	pEC50 (5HT2A receptor [1])	Emax (5HT2A receptor [1])	pKi (5HT2A receptor [2])	pEC50 (5HT2A receptor [3])	Emax (5HT2A receptor [3])	EC50 (5HT2A receptor [1])	Ki (5HT2A receptor [2])	EC50 (5HT2A receptor [3]; 5HT2A Gq EC50 (nM))
Clc1ccc2[nH]nc(C3=CCCNC3)c2c1 [Example 84, 5-chloro-3-(1,2,5,6-tetrahydropyridin-3-yl)-1H-indazole]	7.28	97%	7.60	8.47	94.8%	–	–	–
Fc1ccc2[nH]nc(C3=CCCNC3)c2c1 [Example 85, 5-fluoro-3-(1,2,5,6-tetrahydropyridin-3-yl)-1H-indazole]	7.16	96%	7.48	8.55	88.3%	–	–	–
N#Cc1ccc2[nH]nc(C3=CCCNC3)c2c1 [Example 86, 3-(1,2,5,6-tetrahydropyridin-3-yl)-1H-indazole-5-carbonitrile]	–	95.1%	–	7.80	90.2%	354 nM	370 nM	–
Cc1cccc2c(C3=CCCNC3)n[nH]c12 [Example 88, 7-methyl-3-(1,2,5,6-tetrahydropyridin-3-yl)-1H-indazole]	–	64.8%	–	7.28	72.6%	227 nM	211 nM	–
Clc1cccc2c(C3=CCCNC3)n[nH]c12 [Example 89, 7-chloro-3-(1,2,5,6-tetrahydropyridin-3-yl)-1H-indazole]	7.08	85.1%	7.07	7.94	93.7%	–	–	–
Fc1cccc2c(C3=CCCNC3)n[nH]c12 [Example 90, 7-fluoro-3-(1,2,5,6-tetrahydropyridin-3-yl)-1H-indazole]	7.07	70%	–	8.04	95.6%	–	1390 nM	–
N#Cc1cccc2c(C3=CCCNC3)n[nH]c12 [Example 91, 3-(1,2,5,6-tetrahydropyridin-3-yl)-1H-indazole-7-carbonitrile]	–	86%	–	7.76	126%	105 nM	237 nM	–
CN1CCC=C(c2n[nH]c3cc(F)ccc23)C1 [Example 95, 6-fluoro-3-(1-methyl-1,2,5,6-tetrahydropyridin-3-yl)-1H-indazole]	6.33	27%	7.33	7.68	47.1%	–	–	–
Cc1cccc2[nH]nc(C3=CCCN(C)C3)c12 [Example 97, 4-methyl-3-(1-methyl-1,2,5,6-tetrahydropyridin-3-yl)-1H-indazole]	–	64.6%	–	7.09	69%	605 nM	786 nM	–
CN1CCC=C(c2n[nH]c3cccc(F)c23)C1 [Example 98, 4-fluoro-3-(1-methyl-1,2,5,6-tetrahydropyridin-3-yl)-1H-indazole]	–	54%	–	–	58.5%	483 nM	835 nM	105 nM
CN1CCC=C(c2n[nH]c3cccc(C#N)c23)C1 [Example 99, 3-(1-methyl-1,2,5,6-tetrahydropyridin-3-yl)-1H-indazole-4-carbonitrile]	–	43.8%	–	7.02	80%	1010 nM	491 nM	–
COc1cccc2[nH]nc(C3=CCCN(C)C3)c12 [Example 100, 4-methoxy-3-(1-methyl-1,2,5,6-tetrahydropyridin-3-yl)-1H-indazole]	–	52.4%	–	7.04	63.9%	460 nM	349 nM	–
CN1CCC=C(c2n[nH]c3ccc(Cl)cc23)C1 [Example 101, 5-chloro-3-(1-methyl-1,2,5,6-tetrahydropyridin-3-yl)-1H-indazole]	–	80.7%	–	7.79	74.2%	292 nM	141 nM	–
CN1CCC=C(c2n[nH]c3ccc(F)cc23)C1 [Example 102, 5-fluoro-3-(1-methyl-1,2,5,6-tetrahydropyridin-3-yl)-1H-indazole]	–	79.8%	–	8.05	84.5%	129 nM	246 nM	–
COc1ccc2[nH]nc(C3=CCCN(C)C3)c2c1 [Example 104, 5-methoxy-3-(1-methyl-1,2,5,6-tetrahydropyridin-3-yl)-1H-indazole]	–	83.7%	–	7.08	88.2%	681 nM	501 nM	–
Cc1cccc2c(C3=CCCN(C)C3)n[nH]c12 [Example 105, 7-methyl-3-(1-methyl-1,2,5,6-tetrahydropyridin-3-yl)-1H-indazole]	–	45.7%	–	7.45	75.4%	432 nM	1340 nM	–
